Results published in patent US10059708B2, “Therapeutic targeting of the interleukin 1 receptor-associated kinase 4 (IRAK4) in leukemias characterized by rearrangements in the mixed lineage leukemia gene (MLL-r)” (Northwestern University, priority 2016, dated 2018).
Entries after “also recorded” stand apart in the source; their conditions may differ.

Assays:
[1] = molecular target: T1, Human IRAK4 (Homo sapiens, UniProt Q9NWZ3); experiment: IRAK4 kinase inhibition assay (ADP-Glo); type: biochemical; settings: for Inhibition of IRAK4 kinase activity: 100 uM of each inhibitor, 12.5 uM ATP, relative activity to DMSO (FIG. 15); for IRAK4 kinase inhibition: at increasing concentration (FIG. 16B)
T1 sequence (Q9NWZ3 1-460): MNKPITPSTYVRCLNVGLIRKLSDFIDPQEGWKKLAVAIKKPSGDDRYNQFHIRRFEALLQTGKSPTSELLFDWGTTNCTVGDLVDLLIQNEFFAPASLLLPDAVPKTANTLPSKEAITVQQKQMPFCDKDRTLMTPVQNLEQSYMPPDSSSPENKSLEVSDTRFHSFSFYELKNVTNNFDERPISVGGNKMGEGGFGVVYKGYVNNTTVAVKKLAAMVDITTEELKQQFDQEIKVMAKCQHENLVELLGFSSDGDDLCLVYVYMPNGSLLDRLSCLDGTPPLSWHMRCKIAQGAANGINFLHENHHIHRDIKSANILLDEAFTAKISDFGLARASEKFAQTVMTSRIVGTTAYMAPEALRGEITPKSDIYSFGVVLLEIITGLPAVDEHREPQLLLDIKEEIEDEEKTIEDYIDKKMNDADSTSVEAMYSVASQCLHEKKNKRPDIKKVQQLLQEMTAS
Experimental: FIG. 15. Inhibition of IRAK4 kinase activity by NU's IRAK4 kinase inhibitors. 10 ng IRAK4, 12.5 uM ATP and 500 ng MBP (substrate) were used in the IRAK4 kinase assay. 100 uM of each inhibitor were used individual in the assay and the reaction product ADP was detected by the ADP-GLO assay. Relative activity to DMSO is shown.
(§1) FIG. 16. Development of novel compounds (NUCC0200618 and NUCC0200554) that stabilize the wild-type MLL protein and slow leukemic cell growth through IRAK4 inhibition. A) Western blotting for MLL protein levels in cells treated with the indicated compounds designed and synthesized at Northwestern. Protein stabilization is observed to increase by 6 hours of treatment. B) Luciferase-based IRAK4 kinase assays (Promega) with the indicated doses of the new compounds. C) Cell viability counts after 3 days of treatment with the indicated doses of the new compounds.
The newly synthesized compounds were tested in an IRAK4 kinase inhibition assay as follows. In a 10 μl reaction, 10 ng Human IRAK4, 12.5 μM ATP, 500 ng dephosphorylated MBP (EMD Millipore), and different IRAK inhibitors were used in 1× kinase buffer (60 mM HEPES-NaOH, pH 7.5, 3 mM MgCl2, 3 mM MnCl2, 1.2 mM DTT, 0.1% BSA) at room temperature for 45 minutes. The ADP formed from the kinase reaction was measured by the ADP-Glo™ Kinase Assay (Cat.#V9101) and the luminescence was measured with a Tecan Infinite M1000 plate reader.

[2] = system: wild-type MLL protein; experiment: MLL stabilization assay (western blotting) with new compounds; type: cell-based; settings: western blotting for MLL protein levels (FIG. 16A)
Experimental: as §1
The newly synthesized compound NUCC0200554 (Compound 16 of Example 2) and compound NUCC0200618 (Compound 21 of Example 2) were further tested in MLL stabilization assay, in an IRAK4 kinase activity as described above, and in a SEM cell proliferation assay as follows. SEM (ACC-546) leukemia cells were maintained in Iscove's Modified Dulbecco's Medium (IMDM) with 10% FBS. Viable SEM cells were seeded at 0.2 million/ml, and treated with different concentrations of inhibitors at the indicated concentrations for three days. Viable cells were monitored by trypan blue exclusion staining and counted using a Vi-CELL XR cell counter. Data are represented as Mean±SD (n=3).

[3] = system: SEM cells; experiment: RNA-seq gene expression profiles of SEM cells, new versus commercial IRAK inhibitors; type: cell-based, human; settings: 3 days
Description: FIG. 17. Comparison of novel IRAK4 inhibitors (NUCC numbers) with commercially available IRAK inhibitors (referred to here as IRAK1/4 and IRAK4) on gene expression in leukemia cells as determined by RNA-seq. SEM cells were maintained in IMDM medium with 10% FBS. […] SEM cells were harvested and used for total RNA-seq. A: PCA plot of each group with different treatments. […] B: Distance plot of each group with the indicated treatments.
The gene expression profiles of SEM cells treated with newly synthesized compound NUCC0200554 (Compound 16 of Example 2) and compound NUCC0200618 (Compound 21 of Example 2) as follows. After inhibitor treatment for 3 days, SEM cells were collected and lysed with Trizol reagent. Total RNA was extracted from Trizol according to the manufacturer's instructions. The RNA was treated with DNase I (NEB) and cleaned with the Qiagen RNeasy mini kit. 500 ng RNA was used for library preparation with TruSeq Stranded Total RNA with Ribo-Zero Gold kit (Illumina, RS-123-2201). The sequenced reads were aligned to the human genome (UCSC hgl9) with TopHat 2.1.0 using gene annotations from Ensembl 72. Differential gene expression was performed with Deseq2.

[4] = system: MLL occupancy; experiment: MLL ChIP-seq in HEK293 cells; type: cell-based, human
Experimental: (§2) FIG. 3. […] (D) Halo-MLL-Inter-transfected HEK293 cells were treated with […]/4 inhibitor for 24 hr, purified with HaloLink resin, and subjected to MudPIT analysis. […] Each row represents a peak of MLL occupancy (n=6,250), with rows ordered by decreasing MLL occupancy in the inhibitor-treated condition. […] Boxplots depict the read coverage for all MLL peaks. The p value was calculated with the Wilcoxon signed-rank test. See also FIG. 10.
FIG. 10. […] Occupancy in reads per million (rpm)±3 kb around the center of peak is shown (N=6250). Genes are ordered by MLL occupancy in the inhibitor treatment. […] The read counts of all the MLL peaks were plotted and the Wilcoxon signed-rank test was used to calculate the p value (F).
Chromatin Immunoprecipitation Sequencing. […] ChIP-seq reads were aligned to the mouse (UCSC mm9) or human genome (UCSC hg19). Alignments were processed with Bowtie version 1.1.2, allowing only uniquely mapping reads with up to two mismatches within the 50 bp read. The resulting reads were extended to 150 bases toward the interior of the sequenced fragment and normalized to total reads aligned (reads per million, rpm). […] The average coverage (calculated using rpm tracks described above) across the entire region is shown in the boxplots where p values were calculated with the Wilcoxon signed-rank test. […]

[5] = system: SEM and REH cells; experiment: Total RNA-seq, SEM versus REH cells; type: cell-based, human; settings: 2 days of treatment
Experimental: Total RNA Sequencing. […] Total RNA was extracted from Trizol according to the manufacturer's instructions. The RNA was treated with DNase I (NEB) and cleaned with the QIAGEN RNeasy mini kit. 500 ng RNA was used for library preparation with TruSeq Stranded Total RNA with Ribo-Zero Gold kit (Illumina, RS-123-2201). The sequenced reads were aligned to the human genome (UCSC hgl9) with TopHat 2.1.0 using gene annotations from Ensembl 72. Differential gene expression was performed with EdgeR (Empirical analysis of digital gene expression data in R) version 3.08 (Robinson et al., 2010). Adjusted p values were computed using the Benjamini-Hochburg method. […] P values for Venn diagrams were performed with the hypergeometric test.

[6] = system: endogenous MLL protein; experiment: MLL protein levels / stability in HEK293 cells (western blotting, cycloheximide chase); type: cell-based, human; design: dose or concentration left out as unconfirmed; settings: for indicated times or different concentrations for 24 hr, relative to DMSO
[7] = system: REH cells; experiment: REH cell proliferation (trypan blue, Vi-CELL XR); type: cell-based, human; settings: IRAK1/4 inhibitor
Experimental: FIG. 4. […] Viable cells were seeded at 0.2 million/mL, and they were monitored by trypan blue exclusion staining and counted using a Vi-CELL XR cell counter. Data are represented as mean±SD (n=3). […] Data are represented as mean±SD (n=3). (C) Venn diagram of deregulated genes in SEM cells by IRAK1/4 and IRAK4 inhibitors. […] (D) Venn diagram of deregulated genes in SEM and REH cells by both inhibitors. Little overlap was observed between REH and SEM cells. […] Each cluster is represented by different colors and a circle node represents each enriched term. (G) UBE2O depletion and IRAK inhibition affect a common subset of genes in SEM cells. […] Heatmaps represent Z score-normalized values. See also FIG. 11.
Stabilization of MLL through IRAK Inhibition and UBE2O Depletion Regulates a Specific Gene Regulatory Network in MLL Leukemia. To measure the consequence of stabilizing MLL in MLL leukemia cells, we determined the effects of IRAK inhibition on cell proliferation of REH (MLL-germline leukemia) and SEM (MLL-AFF1) cells. Both of these cell lines are derived from precursor B cell ALL patient blast cells, and, therefore, they have been studied when comparing non-MLL (REH) and MLL-dependent (SEM) leukemia gene expression (Guenther et al., 2008).

[8] = system: MLL-AF9 leukemia; experiment: Murine MLL-AF9 leukemia transplantation model; type: in vivo, C57BL/6 mice; settings: treatment from day 10 after transplantation; IRAK1/4 inhibitor 8 mg/kg, IRAK4 inhibitor 75 mg/kg i.p. every other day; vehicle mice all dead by 31 days
Description: After transformation of MLL-AF9, c-Kit+ HSPCs were transplanted into lethally irradiated C57BL/6 mice with 1 3 106 transformed cells and 2 3 105 support cells. Leukemia cells from primary AML mice were isolated and transplanted into sublethally irradiated C57BL/6 mice. Drug treatments were started at day 10 or 19 after transplantation. (B) Kaplan-Meier survival curves of secondary transplanted C57BL/6 mice after vehicle and IRAK1/4 or IRAK4 inhibitor treatment at day 19 (blast phase). Vehicle or IRAK inhibitors were administered every other day by intraperitoneal injection for a total of five treatments. Leukemia was confirmed at the endpoint for each transplant mouse. […] The p values were calculated using the log rank test. […] The p values were calculated using the log rank test. […]
We further assessed the effects of the IRAK inhibitors in vivo using the murine MLL-AF9 leukemia transplantation model (FIG. 7A) (Volk et al., 2014). […]
Murine MLL-AF9 Leukemia Model. […] The mice were monitored for signs of acute leukemia for 2-3 months and euthanized when leukemia was evident (weight loss below 16.75 g, reduced mobility, malaise, palpable spleen, and hunched back). […]
Animal Treatment. […] Mice were monitored for leukemia development and leukemia was verified after the mice were sacrificed upon signs of illness (weight loss below 16.75 g, partial paralysis, malaise, palpable spleen, and hunched back).

[9] = system: MDS and T-ALL cells; settings: subset of MDS and T-ALL cells with high expression of IRAK1; cited from earlier work
[10] = system: MLL-UBE2O interaction; experiment: MLL-UBE2O interaction (HaloTag purification, MudPIT, co-immunoprecipitation); type: cell-based, human; design: dose or concentration left out as unconfirmed; settings: Halo-MLL-Inter-transfected HEK293 cells
Experimental: as §2

SMILES | Inhibition of IRAK4 kinase activity [1] | IRAK4 kinase inhibition [1] | MLL stabilization [2] | PCA plot grouping of RNA-seq profile ([3]; 10 uM) | genome-wide MLL occupancy ([4]; HEK293 cells, 6,250 MLL peaks) | MLL occupancy at MLL target genes HOXA, HOXC, FOXC1 ([4]; HEK293 cells, 24 hr, D2M7U and NT86 antibodies) | genes downregulated in both REH and SEM cells [5] | genes upregulated in both REH and SEM cells [5] | MLL protein levels (MLL N320) [6] | MLL protein levels (MLL N320) ([6]; listed as IRAK1/4 inhibitor I) | REH cell proliferation [7] | mice that still did not develop MLL-AF9 leukemia as of day 55 [8] | effect of IRAK1/4 inhibitor alone [9] | sensitization to BCL2 inhibitor treatment [9] | MLL-UBE2O interaction [10] | PCA plot grouping of RNA-seq profile ([3]; 5 uM)
Nc1cccc(-c2cnc(NC(=O)c3cccc(Cl)c3)[nH]2)c1 [NUCC0200554, N-(5-(3-aminophenyl)-1H-imidazol-2-yl)-3-chlorobenzamide] | inhibit IRAK4 kinase activity | inhibit IRAK4 kinase | stabilize MLL | very similar profiles |  |  |  |  |  |  |  |  |  |  |  | 
O=C(Nc1nc2ccccc2n1CCN1CCOCC1)c1cccc([N+](=O)[O-])c1 [IRAK1/4 inhibitor] |  |  |  |  | significant increases in MLL occupancy; also recorded: MLL occupancy is significantly increased; also recorded: general increase in MLL occupancy | enhanced MLL occupancy; also recorded: increases MLL occupancy at HOXA and HOXC loci; also recorded: increased MLL occupancy | 238 genes | 186 genes | stabilizes endogenous MLL protein; also recorded: stabilizes MLL protein from proteasomal degradation in a dose-dependent manner | increased levels of MLL protein in a time- and dose-dependent manner | no effect | eight of ten | does not substantially impair these cells | sensitize a subset of MDS and T-ALL cells | substantially decreased; also recorded: decreases MLL-UBE2O interaction | 
O=C(Nc1ncc(-c2cccc(O)c2)[nH]1)c1ccccc1 [NUCC0200618, N-(5-(3-hydroxyphenyl)-1H-imidazol-2-yl)benzamide] | inhibit IRAK4 kinase activity | inhibit IRAK4 kinase | stabilize MLL | group together |  |  |  |  |  |  |  |  |  |  |  | very similar profiles
